Experiments:
[1] = tested on: tracheal smooth muscle of guinea pig; experiment: Relaxation of CCh-induced constriction of isolated guinea pig tracheal smooth muscle (Experimental Example 1); conditions: in vitro
[2] = target: human recombinant M3 receptor (Homo sapiens, UniProt P20309); experiment: biochemical; type: binding
[3] = target: human recombinant M2 receptor (Homo sapiens, UniProt P08172); experiment: biochemical; type: binding; conditions: 3H-QNB 1.81 nmol/L, 25° C., 5 h; read-out: hM2Ki
[4] = target: human recombinant M1 receptor (Homo sapiens, UniProt P11229); experiment: biochemical; type: binding
[5] = target: T1, human recombinant β2 adrenoceptor (Homo sapiens, UniProt P07550); experiment: cell-based; type: cell-based
T1 construct: expressed in transfected cells

[6] = target: T2, human recombinant β1 adrenoceptor (Homo sapiens, UniProt P08588); experiment: cAMP accumulation, human recombinant β1 adrenoceptor; type: cell-based; conditions: cAMP accumulation; 10 nM ICI118551 added; HEK293 cells; read-out: EC50 (β1)
T2 construct: expressed in transfected cells
Procedure: In order to measure the activity and selectivity of agonists to human β1 and β2 adrenoceptors, the cAMP accumulation of expressed receptors in each recombinant cell line was measured. cAMP was determined by homology radioimmunoassay, that is, cells were washed with PSB buffer solution and suspended in the buffer solution at room temperature to grow to 30000-40000 cells per well. The test compound was diluted with PSB buffer solution containing 0.1% BSA and tested at 11 gradient concentrations ranging from 100 uM to 0.1 pM. For the analysis of β1-adrenoceptor, 10 nM of ICI118551 was added to block the expression of β2-adrenoceptor in HEK293 cells. After the compound was added to the suspended cells, the scintillation plate was incubated at 37° C. for 10 minutes, the reaction was terminated with ice-cold detection buffer solution, and its radioactivity was measured after storage at 4° C. overnight.
The agonistic activity (pEC50 value) was analyzed by regression using S-type dose response model of software package (GraphPad Software, San Diego, Calif.). Selectivity was calculated from the ratio of measured cAMP of β1 and β2 adrenoceptors, which was expressed as sel. β1/β2=(EC50 (β1)/EC50 (β2)).

[7] = Lung homogenate stability in vitro (dog); type: in vitro ADME, Beagle dog; conditions: 8 h, 37° C.
Procedure: The compounds of the invention were respectively incubated with the lung homogenate of Beagle dogs for 8 hours in a water bath at 37° C., and sample was analysed by LC-MS/MS when the reaction was terminated.

[8] = tested on: M receptor of guinea pig tracheal smooth muscle; experiment: MA activity: guinea pig isolated trachea, propranolol blocks β receptor, CCh constriction; conditions: Cavia porcellus; propranolol 10^−5 mol/L, CCh 3×10^−6 mol/L
Procedure: (2) Blocking Effect of Example Compounds on M Receptor of Guinea Pig Tracheal Smooth Muscle
(§1) Preparation of an isolated tracheal smooth muscle specimen of a guinea pig: same as Experiment Example 1.
Administration method: After trachea flake was stabilized, propranolol hydrochloride solution with a final concentration of 10^−5 mol/L was added to block β receptor for 10 min, carbachol with a final concentration of 3×10^−6 mol/L was added (observing M receptor antagonism of compound after propranolol blocks β receptor), and administration was started when the pressure value of the trachea flake was increased to a stable platform. The experiments were divided into a blank group, a propranolol+blank group, each test sample administration group and a propranolol+each test sample administration group. DMSO solution prepared by K—H solution and 50 μl of test sample solution were added to each group of the blank group and each test sample administration group respectively. The propranolol+blank group and propranolol+each test sample administration group were added with 50 μl propranolol solution for 10 min respectively, and then added with DMSO solution prepared from K—H solution and 50 μl of test sample solution. The test sample administration group was added with the compounds to be tested with final concentrations of 10^−9, 0.3×10^−8, 10^−8, 0.3×10^−7, 10^−7, 0.3×10^−6 and 10^−6 mol/L at cumulative concentration, and the blank group was added with corresponding diluted DMSO solution. The propranolol+each test sample administration group was added with propranolol for 10 min, and then added with the compounds to be tested with final concentrations of 10^−9, 0.3×10^−8, 10^−8, 0.3×10^−7, 10^−7, 0.3×10^−6 and 10^−6 mol/L at cumulative concentration. After the propranolol+blank group was added with propranolol for 10 min, corresponding diluted DMSO solution was added. Medlab was used to record the relaxation degree of tracheal smooth muscle, finally sodium nitroprusside with a final concentration of […] was added as 100% relaxation.

[9] = Lung homogenate stability in vitro (human); type: in vitro ADME; conditions: 8 h, 37° C.
[10] = Liver microsome metabolic stability in vitro (SD rat); conditions: SD rat liver microsomes
Procedure: (§2) The area ratio of the 0 min sample was taken as 100%, and the remaining percentage of the compound after incubation at different times was obtained at each time point by comparison with the sample. With the natural logarithm of this percentage on the ordinate and time on the abscissa, a scatter plot was drawn to simulate a straight line with a negative slope of k. The parameters were calculated according to the formula.
(§3) Liver weight indicates the liver weight (g) per kilogram of body weight, and P450 indicates the amount (mg) of P450 enzyme per gram of liver.

[11] = Liver microsome metabolic stability in vitro (Beagle dog); conditions: Beagle dog liver microsomes
Procedure: as §2, §3

[12] = tested on: guinea pig tracheal smooth muscle (MABA); experiment: MABA activity: relaxation of CCh pre-constricted guinea pig isolated trachea; conditions: Cavia porcellus; CCh 3×10^−6 mol/L
Procedure: (1) The Constriction Effect of Tracheal Smooth Muscle of Guinea Pig Induced by the Example Compounds Antagonizing Carbachol (CCh)
as §1
Administration Method: After the trachea flake were stabilized, carbachol with a final concentration of 3×10^−6 mol/L was added, and administration was started when the pressure value of the trachea flake was increased to a stable platform. The experiments were divided into blank group and each test sample administration group. DMSO solution prepared from K—H solution and 50 μl of each test sample solution were added to each group respectively. The test sample administration group was added with 10^−9, 0.3×10^−8, 10^−8, 0.3×10^−7, 10^−7, 0.3×10^−6 and 10^−6 mol/L of test compound and control substance at cumulative concentration. The blank group was added with corresponding diluted DMSO solution. Medlab was used to record the relaxation degree of smooth muscle of the trachea flake. Finally, isoproterenol with a final concentration of 10^−5 mol/L was added as 100% relaxation.

[13] = tested on: β2 receptor in guinea pig tracheal smooth muscle; experiment: BA activity: guinea pig isolated trachea pre-treated with histamine; conditions: Cavia porcellus, read-out: BA (EC50, nM)
Procedure: (3) The Antagonism of the Example Compounds on β2 Receptor in Guinea Pig Tracheal Smooth Muscle
as §1
Administration Method: After the trachea flake was stabilized, histamine solution with a final concentration of 3×10^−5 mol/L was added for 10 min, carbachol with a final concentration of 3×10^−6 mol/L was added (observing β receptor antagonism), and administration was started when the pressure value of the trachea flake was increased to a stable platform. The experiments were divided into a blank group, a histamine+blank group, each test sample administration group and a histamine+each test sample administration group. DMSO solution prepared by K—H solution and 50 μl of test sample solution were added to each group of the blank group and each test sample administration group respectively. The histamine+blank group and histamine+each test sample administration group were added with 50 μl histamine solution for 10 min respectively, then added with DMSO solution prepared by K—H solution and 50 μl test sample solution. The test sample administration group was added with the compounds to be tested with final concentrations of 10^−9, 0.3×10^−8, 10^−8, 0.3×10^−7, 10^−7, 0.3×10^−6 and 10^−6 mol/L at cumulative concentration, and the blank group was added with corresponding diluted DMSO solution. The histamine+each test sample administration group was added with histamine for 10 min, and then added with the test compounds with final concentrations of 10^−9, 0.3×10^−8, 10^−8, 0.3×10^−7, 10^−7, 0.3×10^−6 and 10^−6 mol/L at cumulative concentration. After the histamine+blank group was added with histamine for 10 m, corresponding diluted DMSO solution was added. Medlab was used to record the relaxation degree of smooth muscle of the trachea flake. Finally theophylline with a final concentration of 2×10^−4 mol/L was added as 100% relaxation.

[14] = tested on: heart rate of Beagle dogs; experiment: Heart rate changes after iv administration in Beagle dogs; type: in vivo, Beagle dog
Procedure: Beagle dogs were randomly divided into two groups, half male and half female, and were intravenously injected (iv) with 7.5% ethanol solution of compounds of the invention and control compound. Each compound was set up in two dosage groups of 0.01 mg/kg and 0.10 mg/kg.

[15] = Liver microsome metabolic stability in vitro (human); conditions: Human liver microsomes
Procedure: as §2, §3

Chain of human recombinant M3 receptor (P20309 whole entry): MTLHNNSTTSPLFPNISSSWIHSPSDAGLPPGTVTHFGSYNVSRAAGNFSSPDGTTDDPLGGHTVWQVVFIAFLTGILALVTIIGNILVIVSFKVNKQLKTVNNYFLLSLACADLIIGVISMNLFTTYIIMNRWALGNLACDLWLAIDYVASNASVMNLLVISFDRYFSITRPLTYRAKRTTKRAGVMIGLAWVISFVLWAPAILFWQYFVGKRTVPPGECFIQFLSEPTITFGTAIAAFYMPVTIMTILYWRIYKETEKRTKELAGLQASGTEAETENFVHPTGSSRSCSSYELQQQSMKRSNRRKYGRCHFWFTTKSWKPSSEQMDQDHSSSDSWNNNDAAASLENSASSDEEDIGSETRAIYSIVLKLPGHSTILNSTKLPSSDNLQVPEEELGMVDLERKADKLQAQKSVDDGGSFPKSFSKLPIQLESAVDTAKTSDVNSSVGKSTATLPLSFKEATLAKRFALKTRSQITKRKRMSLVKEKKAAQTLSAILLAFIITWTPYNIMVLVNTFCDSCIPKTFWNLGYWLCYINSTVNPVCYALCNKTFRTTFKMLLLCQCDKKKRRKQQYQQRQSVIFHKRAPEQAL
Chain of human recombinant M1 receptor (P11229 whole entry): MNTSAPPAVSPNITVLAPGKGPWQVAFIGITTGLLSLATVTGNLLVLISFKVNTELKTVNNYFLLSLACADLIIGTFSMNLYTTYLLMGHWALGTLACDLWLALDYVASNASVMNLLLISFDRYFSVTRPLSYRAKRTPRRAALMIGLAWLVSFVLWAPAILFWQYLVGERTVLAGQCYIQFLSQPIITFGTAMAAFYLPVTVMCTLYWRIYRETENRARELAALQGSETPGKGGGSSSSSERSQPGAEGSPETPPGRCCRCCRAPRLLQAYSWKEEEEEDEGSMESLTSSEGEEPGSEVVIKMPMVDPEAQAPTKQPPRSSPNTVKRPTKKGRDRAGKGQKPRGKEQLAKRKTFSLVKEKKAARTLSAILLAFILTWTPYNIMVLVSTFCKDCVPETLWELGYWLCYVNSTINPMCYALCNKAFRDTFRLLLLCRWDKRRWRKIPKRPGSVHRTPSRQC
T1 sequence (P07550 whole entry): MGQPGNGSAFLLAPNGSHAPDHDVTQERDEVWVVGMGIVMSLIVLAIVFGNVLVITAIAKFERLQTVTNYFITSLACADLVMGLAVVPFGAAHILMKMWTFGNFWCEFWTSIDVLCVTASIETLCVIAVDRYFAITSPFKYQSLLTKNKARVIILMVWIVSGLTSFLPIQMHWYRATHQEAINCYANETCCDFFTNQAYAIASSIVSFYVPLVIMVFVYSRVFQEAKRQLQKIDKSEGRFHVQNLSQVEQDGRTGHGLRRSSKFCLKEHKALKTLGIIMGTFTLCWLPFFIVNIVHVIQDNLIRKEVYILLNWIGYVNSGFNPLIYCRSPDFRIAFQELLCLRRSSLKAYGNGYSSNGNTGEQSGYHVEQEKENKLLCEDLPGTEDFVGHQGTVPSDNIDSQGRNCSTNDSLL
T2 sequence (P08588 whole entry): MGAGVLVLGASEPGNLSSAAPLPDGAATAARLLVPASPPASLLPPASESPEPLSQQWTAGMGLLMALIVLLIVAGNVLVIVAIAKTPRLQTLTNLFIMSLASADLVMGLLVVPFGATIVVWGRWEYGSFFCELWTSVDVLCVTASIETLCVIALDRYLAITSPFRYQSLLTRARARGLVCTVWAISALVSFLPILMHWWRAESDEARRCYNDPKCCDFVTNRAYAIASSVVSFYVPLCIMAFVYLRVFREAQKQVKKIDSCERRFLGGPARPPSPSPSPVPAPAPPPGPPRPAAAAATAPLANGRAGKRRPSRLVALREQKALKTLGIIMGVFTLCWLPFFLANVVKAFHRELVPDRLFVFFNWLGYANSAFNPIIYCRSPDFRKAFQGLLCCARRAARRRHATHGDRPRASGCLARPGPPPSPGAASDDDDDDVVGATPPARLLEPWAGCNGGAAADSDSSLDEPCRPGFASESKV
Chain of human recombinant M2 receptor (P08172 whole entry): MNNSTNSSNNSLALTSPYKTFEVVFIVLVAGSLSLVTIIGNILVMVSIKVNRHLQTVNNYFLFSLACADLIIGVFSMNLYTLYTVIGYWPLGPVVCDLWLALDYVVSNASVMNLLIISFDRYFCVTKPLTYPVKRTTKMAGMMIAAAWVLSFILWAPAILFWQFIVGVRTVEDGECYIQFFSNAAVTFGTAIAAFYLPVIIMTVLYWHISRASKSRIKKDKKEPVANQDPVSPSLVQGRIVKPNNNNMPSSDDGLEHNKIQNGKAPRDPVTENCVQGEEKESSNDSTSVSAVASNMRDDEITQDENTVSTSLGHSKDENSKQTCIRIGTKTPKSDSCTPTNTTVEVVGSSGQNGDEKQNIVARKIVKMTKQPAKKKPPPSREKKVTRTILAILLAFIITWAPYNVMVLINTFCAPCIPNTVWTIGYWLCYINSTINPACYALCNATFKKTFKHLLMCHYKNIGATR

Structure (SMILES)	Residual rate after incubation of dog lung homogenate (%) [7]	EC50 [8]	Residual rate after incubation of human lung homogenate (%) [9]	liver extraction rate (ERh) [10]	liver extraction rate (ERh) [11]	EC50 [12]	EC50 [13]	0.5-4 h area increase under heart rate curve (%) ([14]; 0.01 mg/kg iv)	0.5-4 h area increase under heart rate curve (%) ([14]; 0.10 mg/kg iv)	liver extraction rate (ERh) [15]	also measured
O=CNc1cc([C@@H](O)CNCc2c(Cl)cc(OCCC[N+]34CCC(CC3)[C@@H](OC[C@](O)(c3ccccc3)C3CCCC3)C4)cc2Cl)ccc1O.[Br-] [Compound 59, (R)-(−)-3-[(R)-2-hydroxy-2-cyclopentyl-2-phenyl]ethoxy-1-{3-[(3,5-dichloro-4-(1-{(R)-[2-hydroxy-2-(3-formamido-4-hydroxy)phenyl]ethylamino}methyl)phenoxy)propyl}-1-azabicyclo[2,2,2]octylonium bromide]											EC50 ([1]; constriction induced by CCh 3 × 10^−6 mol/L, read-out: EC50 (μM) ± SD): 0.0165 ± 0.0075 µM; Ki ([2]; 3H-QNB […], 25° C., 5 h, read-out: hM3Ki): 0.131 ± 0.022 nM; Ki [3]: 2 ± 0.89 nM; Ki ([4]; 3H-QNB […], 25° C., 5 h, read-out: hM1Ki): 0.283 ± 0.018 nM; EC50 ([5]; cAMP accumulation): 0.32 ± 0.12 nM; EC50 [6]: 83 ± 31 nM
O=CNc1cc([C@@H](O)CNCCCOc2ccc(OCCC[N+]34CCC(CC3)[C@@H](OC[C@@](O)(c3ccccc3)C3CCCC3)C4)cc2)ccc1O [Compound 113, (R)-(−)-3-[(R)-2-hydroxy-2-cyclopentyl-2-phenyl]ethoxy-1-{3-[4-(3-{(R)-[2-hydroxy-2-(3-formamido-4-hydroxy)phenyl]ethylamino}propoxy)phenoxy]propyl}-1-azabicyclo[2,2,2]octylonium bromide]	93%	15.6 ± 2.6 nM	93%	0.96	0.96	7.2 ± 1.4 nM	17.6 ± 1.9 nM	−3.4%	3.3%	0.97	
O=c1ccc2c([C@@H](O)CNCCCOc3ccc(OCCC[N+]45CCC(CC4)[C@@H](OC[C@@](O)(c4ccccc4)C4CCCC4)C5)cc3)ccc(O)c2[nH]1.[Br-] [Compound 131]	94%	30.2 ± 8.1 nM	90%	0.93	0.93	4 ± 1 nM	9.2 ± 1.6 nM	10%	2.9%	0.99	
CC(Cc1ccc(OCC[N+]23CCC(CC2)[C@@H](OC[C@@](O)(c2ccccc2)C2CCCC2)C3)cc1)NC[C@H](O)c1ccc(O)c(NC=O)c1 (stereo partly drawn) [Compound 61, (R)-(−)-3-[(R)-2-hydroxy-2-cyclopentyl-2-phenyl]ethoxy]-1-{2-[4-(2-{(R)-[2-hydroxy-2-(3-formamido-4-hydroxy)phenyl]ethylamino}propyl)phenoxy]ethyl}-1-azabicyclo[2,2,2]octylonium bromide]	89%	20.6 ± 1.8 nM	92%	0.95	0.97	5 ± 1.1 nM	12.9 ± 1.8 nM	0%	2.1%	0.98	
O=c1ccc2c([C@@H](O)CNCCCCCCCCC[N+]34CCC(CC3)[C@@H](OC[C@@](O)(c3ccccc3)C3CCCC3)C4)ccc(O)c2[nH]1.[Br-] [Compound 12]	91%	20.1 ± 2.8 nM	98%	0.98	0.93	5.8 ± 1.4 nM	13.8 ± 2.3 nM	1.2%	3.6%	0.96	
O=CNc1cc([C@@H](O)CNCc2c(Cl)cc(OCCC[N+]34CCC(CC3)[C@@H](OC[C@](O)(c3ccccc3)C3CCCC3)C4)cc2Cl)ccc1O.[Br-] [Compound 59]											Onset time (min) ± SD ([1]; CCh 3 × 10^−6 mol/L): 6.53 ± 0.66 min; Time for eliminating inhibition effect (min) ([1]; CCh 3 × 10^−6 mol/L): more than 300 min; M1/M3 ([2]; Mx/My = Ki(y)/Ki(x)): 0.4629; M2/M3 ([2]; Mx/My = Ki(y)/Ki(x)): 0.0656; M1/M2 ([4]; Mx/My = Ki(y)/Ki(x)): 7.0601; sel (β1/β2) [5]: 213.4

Reference: patent publication US11447485B2, “Class of bifunctional compounds with quanternary ammonium salt structure” (Beijing Showby Pharmaceutical Co., Ltd., priority 2016, dated 2022)
